{"source": "patent US20220362299A1", "about": "“ENGINEERED NATURAL KILLER CELLS AND METHODS FOR USING THE SAME IN IMMUNOTHERAPY AND AUTOPHAGY INHIBITON TECHNIQUES” (Purdue Research Foundation, priority 2019, published 2022)", "key": {"GBM43 cells [1]": {"tested_on": "GBM43 cells", "assay": "Killing of CQ-treated GBM43 cells by pNK cells", "assay_type": "cell-based, human", "details": "E/T ratio 5, 4 h", "experimental": "GBM43 cells were first treated with CQ (varying concentrations), then collected and re-seeded into 96 wells. After overnight culture, the NK cells (NK92 control cells and pNK cells against BECN1^−GBM43) were added at an E/T ratio of 5 and co-incubated for 4 h.\nTo further investigate the impact of the inhibition of autophagy on the cytotoxic capacity of NK cells, CQ-treated GBM43 cells or BECN1^− GBM43 cells were incubated with pNK cells for 4 h at an E/T ratio of 5."}, "GBM": {"tested_on": "GBM", "details": "chronic administration, controlled randomized trial / Phase III, diphosphate salt, cited from earlier work"}, "GBM43 cells [2]": {"tested_on": "GBM43 cells", "assay": "Chemokine mRNA in GBM43 cells by RT-PCR", "assay_type": "cell-based, human", "details": "vs control", "experimental": "Total RNAs were extracted using the mirVana™ miRNA Isolation Kit and the concentrations determined with a Qubit 4 Fluorometer. The RNA (80 ng) from each sample was reverse-transcribed using the qScript™ One-Step SYBR® Green qRT-PCR kit in a ViiA-7 RT-PCR system (Thermo Fisher Scientific, Waltham, Mass.). The GAPDH gene was used as the endogenous control. The comparative Ct values of genes of interest were normalized to the Ct value of GAPDH. The 2^−Δct method was used to determine the relative expression of the genes, while the 2^−ΔΔct method was used to calculate fold changes of gene expression over control."}, "GBM43-Luc cells": {"tested_on": "GBM43-Luc cells", "assay": "Orthotopic GBM43 (Luc) xenograft model", "assay_type": "in vivo, NSG mice", "experimental": "Additionally, orthotopic GBM xenografts were generated using NSG mice as previously described. Briefly, on day 0, the GBM43 (Luc) cells (1×10^5) were stereotactically implanted into the right forebrain through a digitalized stereotactic delivery system. […] CD73.mCAR-pNK cells were administered once a week for three weeks. Tumor volumes were monitored and recorded using the Spectral Ami Optical imaging system. Body weights of the mice were also recorded during the treatment period. At the end of the treatment, the mice were sacrificed and whole brain tissues from each mouse were harvested for adenosine measurement and IHC/IF analyses.\nImmunohistochemistry (IHC) and immunofluorescence (IF) staining were carried out at the Histology Research Laboratory at the Purdue University College of Veterinary Medicine (West Lafayette, Ind.). Briefly, the tumors were fixed in 10% neutral-buffered formalin, embedded in paraffin, and cut into 3-5 μm sections.\nFor intracranial GBM xenografts, the NK cells in tumors were detected through the staining using human NKp46/NCR1 antibody. CCL5 and CXCL10 expression in the tumors were detected through the staining using human CCL5/RANTES antibody and CXCL10 antibody, respectively. CD73 expression in the tumors was detected through the staining using human CD73 antibody.\nIn addition to the foregoing, intratumoral adenosine concentrations were also assessed. Brain tissues were harvested post-treatment, rinsed with cold PBS and homogenized in PBS. After that, the suspension was centrifuged at 10,000 g for 10 minutes at 4° C. and the supernatant was collected. Adenosine concentrations were determined using an Adenosine Assay Kit according to the manufacturer's directions. The IHC staining was performed as described above."}, "CD73": {"tested_on": "CD73", "assay": "CD73 activity of GBM43 cells (AMP hydrolysis, malachite green phosphate assay)", "assay_type": "cell-based, human", "details": "various concentrations of CQ, 24 h", "experimental": "To test for CD73 activity and its ability to generate adenosine, GBM43 cells were seeded at 2×10^4 cells per well in a 96-well plate in complete DMEM. After overnight incubation, GBM43 cells were incubated with anti-CD73 scFv following uPA (100 nM)-mediated cleavage from either CD73.mCAR-NK92 or CD73.mCAR-pNK cells during incubation for 6 hours. Then, the cell medium was removed and cells were rinsed three times with phosphate-free buffer (117 mM NaCl, 5.3 mM KCl, 1.8 mM MgCl2, 26 mM NaHCO3, 10 mM glucose, pH 7.4, diluted in ddH2O). AMP (250 μM final), diluted in phosphate-free buffer, was added and incubated for 10 min at 37° C. Finally, the phosphate (Pi) concentrations resulting from AMP hydrolysis were measured using a malachite green phosphate assay kit following the manufacturer's instructions."}}, "note": "Like-named read-outs stand apart in the source and are kept apart here."}
{"substance": "Chloroquine diphosphate salt [CQ]", "values": [{"measurement": "killing of CQ-treated GBM43 cells by human NK cells", "setting": "GBM43 cells [1]", "value": "sensitize GBM cells to superior killing"}, {"measurement": "response of GBM to antineoplastic therapy with added chloroquine", "setting": "GBM", "value": "enhance clinical responses"}, {"measurement": "response of GBM to antineoplastic therapy with added chloroquine", "setting": "GBM; listed as chloroquine (CQ)", "value": "significantly enhanced response"}, {"measurement": "CCL5 mRNA in GBM43 cells", "setting": "GBM43 cells [2]; CQ-treated", "value": "substantial upregulation"}, {"measurement": "CXCL10 mRNA in GBM43 cells", "setting": "GBM43 cells [2]; CQ-treated", "value": "substantial upregulation"}, {"measurement": "CCL2 mRNA in GBM43 cells", "setting": "GBM43 cells [2]; inhibition of autophagy", "value": "decreased transcriptional levels"}, {"measurement": "CXCL12 mRNA in GBM43 cells", "setting": "GBM43 cells [2]; inhibition of autophagy", "value": "decreased transcriptional levels"}, {"measurement": "tumor growth (bioluminescence imaging)", "setting": "GBM43-Luc cells; CQ 50 mg/kg IP, CD73.mCAR-pNK intracranial, weekly for three weeks, vs control group", "value": "no significant effect"}, {"measurement": "CCL5 expression in tumor tissues (IHC)", "setting": "GBM43-Luc cells; mouse, in vivo", "value": "robustly up-regulated"}, {"measurement": "CXCL10 expression in tumor tissues (IHC)", "setting": "GBM43-Luc cells; mouse, in vivo", "value": "robustly up-regulated"}, {"measurement": "crossing of the blood-brain barrier in vivo", "setting": "GBM43-Luc cells; mouse, in vivo", "value": "able to cross the blood-brain barrier"}, {"measurement": "production of adenosine in GBM cells mediated by CD73", "setting": "CD73", "value": "significantly reduced"}]}
